# Molecular target: T1, glutamate mutase (GM) (Clostridium cochlearium, UniProt P80077+P80078)
# T1 construct: gene glmE; hetero-tetramer (two epsilon, two sigma subunits), reconstituted with cobalamin
# T1 sequence (P80077 1-483): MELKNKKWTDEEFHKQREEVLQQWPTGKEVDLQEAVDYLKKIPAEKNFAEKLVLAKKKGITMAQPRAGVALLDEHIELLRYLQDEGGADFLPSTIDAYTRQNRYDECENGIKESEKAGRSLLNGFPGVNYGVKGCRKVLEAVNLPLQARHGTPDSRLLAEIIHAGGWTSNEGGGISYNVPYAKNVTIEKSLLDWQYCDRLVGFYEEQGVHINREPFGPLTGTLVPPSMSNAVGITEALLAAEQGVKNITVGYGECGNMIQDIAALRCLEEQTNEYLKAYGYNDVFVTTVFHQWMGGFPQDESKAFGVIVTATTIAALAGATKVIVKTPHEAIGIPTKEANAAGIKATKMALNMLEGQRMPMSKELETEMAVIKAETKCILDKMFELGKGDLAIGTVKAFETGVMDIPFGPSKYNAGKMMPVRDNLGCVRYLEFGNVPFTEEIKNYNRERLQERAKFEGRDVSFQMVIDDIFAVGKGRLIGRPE
# T1 sequence (P80078 1-137): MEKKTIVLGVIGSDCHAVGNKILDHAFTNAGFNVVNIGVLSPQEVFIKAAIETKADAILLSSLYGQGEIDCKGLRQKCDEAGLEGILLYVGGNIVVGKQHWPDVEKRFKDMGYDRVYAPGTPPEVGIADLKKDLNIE
# Test: X-ray crystal structure, […] Å
# Format: binding
# Details: with AdoMeCbl (also bound in the AdoEtCbl complex 6H9F); pseudo-substrate in substrate site of epsilon subunit (arginine claw)
structure (smiles),measurement,value
"O=C(O)[C@@H](O)[C@H](O)C(=O)O [(S,S)‐tartrate]","X-ray crystal structure, 1.8 Å","strong polar binding interactions with the carboxylate groups of an (S,S)‐tartrate ion"
